Assay results: patent US20230000813A1, “COMPOUND FOR THE TREATMENT OF BOVINE OR SWINE RESPIRATORY DISEASE” (Intervet Inc., priority 2016, published 2023)
Converted amounts (≈) assume the structure as drawn.

Assays:
Assay in all cases: MIC, broth-microdilution (CLSI VET01-A4)
Assay type in all cases: cell-based
[1] = tested on: Mannheimia haemolytica MH 13065 (XB0446-6003.9, BRD field isolate)
Method in brief: (§1)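 MIC read by eye as lowest compound concentration without visible growth (no turbidity), interpreted per CLSI VET01-S3. Doubling-dilution broth-microdilution trays, run according to CLSI VET01-A4.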

[2] = tested on: Mannheimia haemolytica MH 13093 (XB0472-6014.1, BRD field isolate)
Method in brief: as §1

[3] = tested on: Pasteurella multocida PM 10775 (080130003051, BRD field isolate); conditions: Pasteurella multocida PM 10775; for MIC: read-out: MIC PM 10775
Method in brief: (§2)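 Doubling dilution series in microdilution trays; endpoint = lowest conc. without visible growth (no turbidity, unaided eye); interpretation per CLSI VET01-S3.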

[4] = tested on: Pasteurella multocida PM 6391 (ATCC 43137, reference strain); conditions: Pasteurella multocida PM 6391; for MIC: read-out: MIC PM 6391
Method in brief: as §2

[5] = tested on: Mannheimia haemolytica MH 10720 (154, BRD field isolate); conditions: Mannheimia haemolytica MH 10720; for MIC: read-out: MIC MH 10720
Method in brief: as §2

[6] = tested on: Pasteurella multocida PM 12080 (IV102277-0093, BRD field isolate); conditions: Pasteurella multocida PM 12080; for MIC: read-out: MIC PM 12080
Method in brief: as §2

[7] = tested on: Mannheimia haemolytica MH 6374 (ATCC 33396, reference strain); conditions: Mannheimia haemolytica MH 6374; for MIC: read-out: MIC MH 6374
Method in brief: as §2

[8] = tested on: Pasteurella multocida PM 6267 (P 2225 (L386), reference strain, mouse infection strain); conditions: Pasteurella multocida PM 6267
Method in brief: as §2

[9] = tested on: Mannheimia haemolytica MH 12587 (1071, BRD field isolate, macrolide-resistance: erm+, E+); conditions: Mannheimia haemolytica MH 12587, macrolide-resistant
Method in brief: as §2

[10] = tested on: Mannheimia haemolytica MH 6357 (M7/2, reference strain, cattle infection strain); conditions: Mannheimia haemolytica MH 6357; for MIC: read-out: MIC MH 6357
Method in brief: as §2

| SMILES | MIC [1] [µM] | MIC [2] [µM] | MIC [3] [µM] | MIC PM 6391 [4] | MIC MH 10720 [5] | MIC PM 12080 [6] | MIC [7] [µM] | MIC PM 6267 [8] | MIC MH 12587 [9] [µM] | MIC [10] [µM] | MIC PM 10775 [3] | MIC [4] [µM] | MIC [6] [µM] | MIC ([8]; read-out: MIC PM 6267) [µM] | MIC MH 6374 [7] | MIC MH 6357 [10] | MIC [5] [µM] |
| --- | --- | --- | --- | --- | --- | --- | --- | --- | --- | --- | --- | --- | --- | --- | --- | --- | --- |
| CC(C)(O)[C@H](NC(=O)c1ccc(C#Cc2ccc(CNCc3nccs3)s2)cc1)C(=O)NO [Compound 735] | 0.2 (≈ 0.0969 µg/mL) | 0.4 (≈ 0.194 µg/mL) | 0.2 (≈ 0.0969 µg/mL) | <=0.1 μM | <=0.1 μM | <=0.1 μM | 0.2 (≈ 0.0969 µg/mL) | <=0.1 μM | 0.4 (≈ 0.194 µg/mL) | 0.4 (≈ 0.194 µg/mL) | – | – | – | – | – | – | – |
| CCC(C)C(NC(=O)c1ccc(C#Cc2ccc(CNC3CC3)cc2)cc1)C(=O)NO (stereo not drawn) [Compound 164] | 0.4 (≈ 0.168 µg/mL) | 0.4 (≈ 0.168 µg/mL) | – | – | <=0.1 μM | – | 0.781 (≈ 0.328 µg/mL) | <=0.1 μM | 0.8 (≈ 0.336 µg/mL) | 0.391 (≈ 0.164 µg/mL) | <=0.1 μM | 0.391 (≈ 0.164 µg/mL) | 0.2 (≈ 0.0839 µg/mL) | – | – | – | – |
| CC(C)(N)C(NC(=O)c1ccc(C#Cc2ccc(CNCc3ccc(F)cc3)s2)cc1)C(=O)NO (racemic) [Compound 637] | 1.6 (≈ 0.791 µg/mL) | 0.8 (≈ 0.396 µg/mL) | 0.2 (≈ 0.0989 µg/mL) | – | <=0.1 μM | – | 0.4 (≈ 0.198 µg/mL) | <=0.1 μM | 1.6 (≈ 0.791 µg/mL) | 0.8 (≈ 0.396 µg/mL) | – | 0.4 (≈ 0.198 µg/mL) | 0.2 (≈ 0.0989 µg/mL) | – | – | – | – |
| CCC(C)C(NC(=O)c1ccc(C#Cc2ccc(CNCc3cccnc3)cc2)cc1)C(=O)NO (stereo not drawn) [Compound 299] | 0.8 (≈ 0.376 µg/mL) | 0.8 (≈ 0.376 µg/mL) | – | – | <=0.1 μM | – | 0.8 (≈ 0.376 µg/mL) | – | 1.6 (≈ 0.753 µg/mL) | 0.4 (≈ 0.188 µg/mL) | <=0.1 μM | 1.6 (≈ 0.753 µg/mL) | 0.4 (≈ 0.188 µg/mL) | 0.2 (≈ 0.0941 µg/mL) | – | – | – |
| CSC(C)(C)[C@H](NC(=O)c1ccc(C#Cc2ccc(CNCc3ccco3)cc2)cc1)C(=O)NO [Compound 596] | 0.4 (≈ 0.197 µg/mL) | 0.4 (≈ 0.197 µg/mL) | – | – | <=0.1 μM | <=0.1 μM | 0.8 (≈ 0.393 µg/mL) | <=0.1 μM | 0.8 (≈ 0.393 µg/mL) | 0.4 (≈ 0.197 µg/mL) | <=0.1 μM | 0.2 (≈ 0.0983 µg/mL) | – | – | – | – | – |
| C[C@@H](O)[C@H](NC(=O)c1ccc(C#Cc2ccc(CNCc3cccs3)cc2)cc1)C(=O)NO [Compound 260] | 0.4 (≈ 0.185 µg/mL) | 0.4 (≈ 0.185 µg/mL) | – | <=0.1 μM | <=0.1 μM | <=0.1 μM | – | <=0.1 μM | 0.4 (≈ 0.185 µg/mL) | – | <=0.1 μM | – | – | – | <=0.1 μM | <=0.1 μM | – |
| CSC(C)(C)[C@H](NC(=O)c1ccc(C#Cc2ccc(CNCc3ccncc3)cc2)cc1)C(=O)NO [Compound 587] | 0.4 (≈ 0.201 µg/mL) | 0.4 (≈ 0.201 µg/mL) | – | <=0.1 μM | <=0.1 μM | <=0.1 μM | 0.8 (≈ 0.402 µg/mL) | <=0.1 μM | 0.8 (≈ 0.402 µg/mL) | 0.4 (≈ 0.201 µg/mL) | <=0.1 μM | – | – | – | – | – | – |
| CC(C)C(NC(=O)c1ccc(C#Cc2ccc(CNCc3ccnc(Cl)c3)cc2)cc1)C(=O)NO (stereo not drawn) [Compound 288] | 0.8 (≈ 0.393 µg/mL) | 0.8 (≈ 0.393 µg/mL) | – | – | – | – | 0.8 (≈ 0.393 µg/mL) | <=0.1 μM | 1.6 (≈ 0.786 µg/mL) | 0.4 (≈ 0.196 µg/mL) | <=0.1 μM | 0.4 (≈ 0.196 µg/mL) | 0.2 (≈ 0.0982 µg/mL) | – | – | – | 0.2 (≈ 0.0982 µg/mL) |
| CC(C)(C(NC(=O)c1ccc(C#Cc2ccc(CNCc3ccncc3)cc2)cc1)C(=O)NO)[N+](=O)[O-] (racemic) [Compound 654] | 0.4 (≈ 0.201 µg/mL) | 0.4 (≈ 0.201 µg/mL) | – | <=0.1 μM | <=0.1 μM | <=0.1 μM | 0.4 (≈ 0.201 µg/mL) | <=0.1 μM | 0.8 (≈ 0.401 µg/mL) | 0.4 (≈ 0.201 µg/mL) | <=0.1 μM | – | – | – | – | – | – |
| CC(C)(O)C(NC(=O)c1ccc(C#Cc2ccc(CNCc3cccnc3)cc2)cc1)C(=O)NO (stereo not drawn) [Compound 574] | 0.4 (≈ 0.189 µg/mL) | 0.8 (≈ 0.378 µg/mL) | – | <=0.1 μM | <=0.1 μM | <=0.1 μM | 0.4 (≈ 0.189 µg/mL) | <=0.1 μM | 1.6 (≈ 0.756 µg/mL) | 0.8 (≈ 0.378 µg/mL) | <=0.1 μM | – | – | – | – | – | – |
| CC(C)(C(NC(=O)c1ccc(C#Cc2ccc(CNCc3ccccn3)cc2)cc1)C(=O)NO)S(C)(=O)=O (stereo not drawn) [C. 615] | 1.6 (≈ 0.855 µg/mL) | 0.8 (≈ 0.428 µg/mL) | – | <=0.1 μM | <=0.1 μM | <=0.1 μM | 0.4 (≈ 0.214 µg/mL) | <=0.1 μM | 1.6 (≈ 0.855 µg/mL) | 1.6 (≈ 0.855 µg/mL) | <=0.1 μM | – | – | – | – | – | – |
| C[C@@H](O)[C@H](NC(=O)c1ccc(C#Cc2ccc(CNCc3ccccn3)cc2)cc1)C(=O)NO [C. 258] | 0.8 (≈ 0.367 µg/mL) | 0.8 (≈ 0.367 µg/mL) | – | – | – | <=0.1 μM | 0.8 (≈ 0.367 µg/mL) | <=0.1 μM | 1.6 (≈ 0.734 µg/mL) | 0.4 (≈ 0.183 µg/mL) | <=0.1 μM | 0.2 (≈ 0.0917 µg/mL) | – | – | – | – | 0.2 (≈ 0.0917 µg/mL) |
| CC(C)(N)C(NC(=O)c1ccc(C#Cc2ccc(CNCc3nccs3)s2)cc1)C(=O)NO (stereo not drawn) [Compound 564] | 0.8 (≈ 0.387 µg/mL) | 0.8 (≈ 0.387 µg/mL) | – | <=0.1 μM | <=0.1 μM | <=0.1 μM | 0.4 (≈ 0.193 µg/mL) | <=0.1 μM | 0.8 (≈ 0.387 µg/mL) | 0.8 (≈ 0.387 µg/mL) | <=0.1 μM | – | – | – | – | – | – |
| CC(C)C(NC(=O)c1ccc(C#Cc2ccc(CNCc3ccccn3)cc2)cc1)C(=O)NO (stereo not drawn) [Compound 289] | 0.8 (≈ 0.365 µg/mL) | 0.8 (≈ 0.365 µg/mL) | – | – | – | – | 0.8 (≈ 0.365 µg/mL) | <=0.1 μM | 1.6 (≈ 0.73 µg/mL) | 0.4 (≈ 0.183 µg/mL) | <=0.1 μM | 0.4 (≈ 0.183 µg/mL) | 0.4 (≈ 0.183 µg/mL) | – | – | – | 0.2 (≈ 0.0913 µg/mL) |
| C[C@@H](O)[C@H](NC(=O)c1ccc(C#Cc2ccc(CNCc3ccccc3)cc2)cc1)C(=O)NO [Compound 2] | 1 (≈ 0.458 µg/mL) | 0.8 (≈ 0.366 µg/mL) | – | <=0.1 μM | <=0.1 μM | <=0.1 μM | 0.2 (≈ 0.0915 µg/mL) | <=0.1 μM | 0.8 (≈ 0.366 µg/mL) | 0.2 (≈ 0.0915 µg/mL) | <=0.1 μM | – | – | – | – | – | – |
